Values joined by “and” are separate entries in the source; they are usually repeats but may differ in a detail not shown here. Identical values can stand only once.
Tested on: BDF1 mice, Adenocarcinoma 755 s.c., tumor weight T/C
Experiment: NCI In Vivo Anticancer Drug Screen. Data for tumor model Adenocarcinoma 755 (subcutaneous) in B6D2F1 (BDF1) mice
Details: endpoint: mean tumor weight, higher = larger tumour
Method in brief: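 Tumor-bearing mice receive test compound while controls get vehicle alone. Antitumor effect is scored from survival or tumor dimensions as a T/C quotient.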

[1] = dose: 75.0 mg/kg/injection, schedule: Q01DX011 (ip), vehicle: methylcellulose (MC)

`NC(C=O)C(O)C(O)C(O)CO` (stereo not drawn) was tested, and the T/C (dose: 250.0 mg/kg/injection, schedule: Q01DX011 (ip), vehicle: carboxymethylcellulose (CMC)) was 104 % of control and 204 % of control, the T/C (dose: 500.0 mg/kg/injection, schedule: Q01DX011 (ip), vehicle: carboxymethylcellulose (CMC)) was 225 % of control and the T/C (dose: 1000.0 mg/kg/injection, schedule: Q01DX011 (ip), vehicle: carboxymethylcellulose (CMC)) was 102 % of control and 110 % of control. For the same compound, the T/C (dose: 2000.0 mg/kg/injection, schedule: Q01DX011 (ip), vehicle: methylcellulose (MC)) was 89 % of control and the T/C (dose: 2500.0 mg/kg/injection, schedule: Q01DX011 (ip), vehicle: methylcellulose (MC)) was 72 % of control.

For `CN1CCC(N)=NC1=O`, the T/C (dose: 15.0 mg/kg/injection, schedule: Q01DX011 (ip), vehicle: saline) was 88 % of control, the T/C (dose: 31.0 mg/kg/injection, schedule: Q01DX011 (ip), vehicle: saline) was 92 % of control and the T/C (dose: 62.0 mg/kg/injection, schedule: Q01DX011 (ip), vehicle: saline) was 92 % of control. For the same compound, the T/C (dose: 125.0 mg/kg/injection, schedule: Q01DX011 (ip), vehicle: saline) was 65 % of control and the T/C (dose: 250.0 mg/kg/injection, schedule: Q01DX011 (ip), vehicle: saline) was 74 % of control.

In the case of `CCCn1cnc2c(=S)nc[nH]c21`, the T/C (dose: 0.25 mg/kg/injection, schedule: Q01DX011 (ip), vehicle: carboxymethylcellulose (CMC)) is reported as 80 % of control, the T/C (dose: 1.0 mg/kg/injection, schedule: Q01DX011 (ip), vehicle: carboxymethylcellulose (CMC)) is reported as 53 % of control and the T/C (dose: 3.0 mg/kg/injection, schedule: Q01DX011 (ip), vehicle: carboxymethylcellulose (CMC)) is reported as 8 % of control and 11 % of control. The T/C (dose: 4.0 mg/kg/injection, schedule: Q01DX011 (ip), vehicle: carboxymethylcellulose (CMC)) was 7 % of control, the T/C (dose: 6.25 mg/kg/injection, schedule: Q01DX011 (ip), vehicle: carboxymethylcellulose (CMC)) was 6 % of control and the T/C (dose: 8.0 mg/kg/injection, schedule: Q01DX011 (ip), vehicle: carboxymethylcellulose (CMC)) was 10 % of control. For the same compound, the T/C (dose: 12.5 mg/kg/injection, schedule: Q01DX011 (ip), vehicle: carboxymethylcellulose (CMC)) was 5 % of control, the T/C (dose: 16.0 mg/kg/injection, schedule: Q01DX011 (ip), vehicle: carboxymethylcellulose (CMC)) was 4 % of control and 9 % of control and the T/C (dose: 25.0 mg/kg/injection, schedule: Q01DX011 (ip), vehicle: carboxymethylcellulose (CMC)) was 2 % of control. The T/C (dose: 31.0 mg/kg/injection, schedule: Q01DX011 (ip), vehicle: carboxymethylcellulose (CMC)) was 7 % of control and the T/C (dose: 62.0 mg/kg/injection, schedule: Q01DX011 (ip), vehicle: carboxymethylcellulose (CMC)) was 6 % of control.

With `CC1=C(O)c2ccccc2C(=O)C1=O` the T/C (dose: 25.0 mg/kg/injection, schedule: Q01DX011 (ip), vehicle: other) was 106 % of control, the T/C (dose: 50.0 mg/kg/injection, schedule: Q01DX011 (ip), vehicle: other) was 84 % of control and the T/C (dose: 100.0 mg/kg/injection, schedule: Q01DX011 (ip), vehicle: other) was 96 % of control.

`Fc1cccc(CSc2ncnc3c2ncn3C2CCCS2)c1` (stereo not drawn) was tested, and the T/C (dose: 25.0 mg/kg/injection, schedule: Q01DX011 (ip), vehicle: methylcellulose (MC)) was 61 % of control, the T/C [1] was 62 % of control and the T/C (dose: 225.0 mg/kg/injection, schedule: Q01DX011 (ip), vehicle: methylcellulose (MC)) was 32 % of control.

`CN(Cc1ccccc1)N=Nc1n[nH]nc1C(N)=O` was tested, and the T/C (dose: 50.0 mg/kg/injection, schedule: Q01DX011 (ip), vehicle: carboxymethylcellulose (CMC)) was 75 % of control, the T/C (dose: 100.0 mg/kg/injection, schedule: Q01DX011 (ip), vehicle: carboxymethylcellulose (CMC)) was 91 % of control and the T/C (dose: 200.0 mg/kg/injection, schedule: Q01DX011 (ip), vehicle: carboxymethylcellulose (CMC)) was 56 % of control.

With `CCOC1CCCC(n2cnc3c(Cl)ncnc32)O1` (stereo not drawn) the T/C (dose: 7.81 mg/kg/injection, schedule: Q01DX011 (ip), vehicle: methylcellulose (MC)) was 64 % of control, the T/C (dose: 15.63 mg/kg/injection, schedule: Q01DX011 (ip), vehicle: methylcellulose (MC)) was 65 % of control and the T/C (dose: 31.25 mg/kg/injection, schedule: Q01DX011 (ip), vehicle: methylcellulose (MC)) was 43 % of control. For the same compound, the T/C (dose: 62.5 mg/kg/injection, schedule: Q01DX011 (ip), vehicle: methylcellulose (MC)) was 3 % of control and 17 % of control.

`CC(C)Cn1cnc2c(SCCc3ccccc3)nc(N)nc21` was tested, and the T/C [1] was 52 % of control, the T/C (dose: 150.0 mg/kg/injection, schedule: Q01DX011 (ip), vehicle: methylcellulose (MC)) was 34 % of control and the T/C (dose: 300.0 mg/kg/injection, schedule: Q01DX011 (ip), vehicle: methylcellulose (MC)) was 3 % of control.

With `Nc1nc(SCc2ccccc2)c2ncn(C3CCCO3)c2n1` (stereo not drawn) the T/C (dose: 1.8 mg/kg/injection, schedule: Q01DX011 (ip), vehicle: methylcellulose (MC)) was 68 % of control, the T/C (dose: 3.7 mg/kg/injection, schedule: Q01DX011 (ip), vehicle: methylcellulose (MC)) was 45 % of control and the T/C (dose: 7.5 mg/kg/injection, schedule: Q01DX011 (ip), vehicle: methylcellulose (MC)) was 2 % of control and 5 % of control. The T/C (dose: 20.0 mg/kg/injection, schedule: Q01DX011 (ip), vehicle: methylcellulose (MC)) was 2 % of control.

With `CCCCn1cnc2c(SCc3ccccn3)nc(N)nc21` the T/C (dose: 3.6 mg/kg/injection, schedule: Q01DX011 (ip), vehicle: methylcellulose (MC)) was 6 % of control and the T/C (dose: 7.25 mg/kg/injection, schedule: Q01DX011 (ip), vehicle: methylcellulose (MC)) was 2 % of control.

For `CC(=O)OC1(C)CC(C)C(=O)C(C(O)CC2CC(=O)NC(=O)C2)C1` (stereo not drawn), the T/C (dose: 0.2 mg/kg/injection, schedule: Q01DX006 (ip), vehicle: other) was 38 % of control, the T/C (dose: 0.5 mg/kg/injection, schedule: Q01DX006 (ip), vehicle: other) was 17 % of control and the T/C (dose: 0.5 mg/kg/injection, schedule: Q01DX006 (ip), vehicle: water) was 72 % of control. For the same compound, the T/C (dose: 2.0 mg/kg/injection, schedule: Q01DX006 (ip), vehicle: water) was 66 % of control, the T/C (dose: 5.0 mg/kg/injection, schedule: Q01DX006 (ip), vehicle: water) was 114 % of control and the T/C (dose: 10.0 mg/kg/injection, schedule: Q01DX006 (ip), vehicle: water) was 71 % of control. For the same compound, the T/C (dose: 1:500.0 dilution, schedule: Q01DX006 (ip), vehicle: water) was 84 % of control, the T/C (dose: 1:1000.0 dilution, schedule: Q01DX006 (ip), vehicle: water) was 115 % of control and the T/C (dose: 1:2000.0 dilution, schedule: Q01DX006 (ip), vehicle: water) was 105 % of control and 83 % of control. The T/C (dose: 1:20000.0 dilution, schedule: Q01DX006 (ip), vehicle: water) was 39 % of control and the T/C (dose: 1:100000.0 dilution, schedule: Q01DX006 (ip), vehicle: water) was 101 % of control.

In the case of `CC(C)CCSc1nc(N)nc2nc[nH]c12`, the T/C (dose: 4.68 mg/kg/injection, schedule: Q01DX011 (ip), vehicle: methylcellulose (MC)) is reported as 59 % of control, the T/C (dose: 9.37 mg/kg/injection, schedule: Q01DX011 (ip), vehicle: methylcellulose (MC)) is reported as 29 % of control and the T/C (dose: 18.75 mg/kg/injection, schedule: Q01DX011 (ip), vehicle: methylcellulose (MC)) is reported as 21 % of control. For the same compound, the T/C (dose: 37.5 mg/kg/injection, schedule: Q01DX011 (ip), vehicle: methylcellulose (MC)) was 12 % of control.

With `OCC1OC(n2cnc3c(I)ncnc32)C(O)C1O` (stereo not drawn) the T/C (dose: 30.0 mg/kg/injection, schedule: Q01DX011 (ip), vehicle: saline) was 73 % of control, the T/C (dose: 60.0 mg/kg/injection, schedule: Q01DX011 (ip), vehicle: saline) was 73 % of control and the T/C (dose: 120.0 mg/kg/injection, schedule: Q01DX011 (ip), vehicle: saline) was 49 % of control. For the same compound, the T/C (dose: 240.0 mg/kg/injection, schedule: Q01DX011 (ip), vehicle: saline) was 29 % of control.

In the case of `Nc1n[se]nc1C(=O)O`, the T/C (dose: 0.75 mg/kg/injection, schedule: Q01DX011 (ip), vehicle: carboxymethylcellulose (CMC)) is reported as 82 % of control.

Source: PubChem BioAssay AID180 (DTP/NCI, 2004)
